The record followed here is ChEMBL document CHEMBL5331135, “Design, Synthesis, and Evaluation of Glucose Transporter Inhibitor-SN38 Conjugates for Targeting Colorectal Cancer” (J Med Chem, 2023).

A value given as a limit tells only on which side of the number the result lay.

As usually defined, the IC50 is the concentration needed to halve the response being measured. The half-life is the time needed for the level to fall by half in the phase considered.

Data set [1] can be described thus: Toxicity in AOM/DSS-induced orthotopic CRC BALB/c mouse model assessed as body weight loss at 40 mg/kg, iv administered once every 2 days for 2 weeks. To be noted: in vivo, 336 h. It counts as organism-based.
Data set [2] is described as follows: Toxicity in AOM/DSS-induced orthotopic CRC BALB/c mouse model assessed as lesions in liver at 20 to 40 mg/kg, iv administered once every 2 days for 2 weeks by H&E staining based analysis. It is filed as organism-based. To be noted: in vivo, 336 h, dose 20-40 mg/kg.
Data set [3] can be described thus: Toxicity in AOM/DSS-induced orthotopic CRC BALB/c mouse model assessed as lesions in stomach at 20 to 40 mg/kg, iv administered once every 2 days for 2 weeks by H&E staining based analysis. Particulars: in vivo, 336 h, dose 20-40 mg/kg. It is filed as organism-based.
Data set [4] can be described thus: Toxicity in AOM/DSS-induced orthotopic CRC BALB/c mouse model assessed as lesions in spleen at 20 to 40 mg/kg, iv administered once every 2 days for 2 weeks by H&E staining based analysis. It counts as organism-based. Particulars: in vivo, 336 h, dose 20-40 mg/kg.
The subject of a further data set is COLO 205. Briefly: Cytotoxicity against human COLO 205 cells incubated for 48 hrs by SRB assay. It counts as functional, cell-based. Particulars: COLO 205, 48 h. In general terms: The SRB assay estimates cell density from bound dye.
The nature of data set [5]: Stability in human plasma assessed as formation of carboxylate product measured for 72 hrs by RP-HPLC analysis. It is filed as ADME, cell-free.
Another data set deals with HT-29. Briefly: Cytotoxicity against human HT-29 cells incubated for 48 hrs by SRB assay. To be noted: HT-29, 48 h. It counts as functional, cell-based.
The nature of data set [6]: Prodrug conversion in lung of BALB/c mouse assessed as SN38 release at 40 mg/kg, iv measured after 4 hrs by UHPLC-MS/MS analysis. It is filed as ADME, organism-based. To be noted: in vivo.
Data set [7] in a line: Toxicity in AOM/DSS-induced orthotopic CRC BALB/c mouse model assessed as lesions in lung at 20 to 40 mg/kg, iv administered once every 2 days for 2 weeks by H&E staining based analysis. It counts as organism-based. To be noted: in vivo, 336 h, dose 20-40 mg/kg.
Data set [8] can be described thus: Antitumor activity against AOM/DSS-induced orthotopic CRC BALB/c mouse model assessed as reduction in tumor area at 40 mg/kg, iv administered once every 2 days for 2 weeks by dissecting microscopic analysis relative to control. It is filed as functional, Colorectal cancer cell. More on the design: scale not given: the % may be the effect or the level left.
The next data set has as its system HCT-116. Briefly: Cytotoxicity against human HCT-116 cells incubated for 48 hrs by SRB assay. It is filed as functional, cell-based. To be noted: HCT-116, 48 h.
Data set [9] in a line: Drug uptake in human COLO 205 cells assessed as drug internalization in presence of 4.5 g/L glucose by fluorescence based assay. It counts as ADME, cell-based.
A further data set deals with Colorectal cancer cell. Briefly: Antitumor activity against AOM/DSS-induced orthotopic CRC BALB/c mouse model assessed as reduction in tumor area administered intravenously once every 2 days for 2 weeks by dissecting microscopic analysis. It counts as functional. Particulars: dose 20-40 mg/kg, route iv.
Data set [10] is described as follows: Prodrug conversion in buffer assessed as SN38 release at 1 uM measured for 2 hrs by UHPLC-MS/MS analysis. It is filed as ADME.
A short description of data set [11]: Toxicity in AOM/DSS-induced orthotopic CRC BALB/c mouse model assessed as lesions in heart at 20 to 40 mg/kg, iv administered once every 2 days for 2 weeks by H&E staining based analysis. It counts as organism-based. Particulars: in vivo, 336 h, dose 20-40 mg/kg.
The nature of data set [12]: Stability in human plasma assessed as half life by RP-HPLC analysis. It is filed as ADME, cell-free.
Data set [13] can be described thus: Toxicity in AOM/DSS-induced orthotopic CRC BALB/c mouse model assessed as lesions in kidney at 20 to 40 mg/kg, iv administered once every 2 days for 2 weeks by H&E staining based analysis. It counts as organism-based. To be noted: in vivo, 336 h, dose 20-40 mg/kg.
Data set [14] is described as follows: Drug concentration in spleen of BALB/c mouse at 40 mg/kg, iv measured after 4 hrs by UHPLC-MS/MS analysis. To be noted: in vivo. It counts as ADME, organism-based.
The nature of data set [15]: Drug concentration in brain of BALB/c mouse at 40 mg/kg, iv measured after 4 hrs by UHPLC-MS/MS analysis. It counts as ADME, organism-based. Particulars: in vivo.
Data set [16] is described as follows: Prodrug conversion in tumor of BALB/c mouse assessed as SN38 release at 20 mg/kg, ip measured after 4 hrs by UHPLC-MS/MS analysis. It is filed as ADME, organism-based, Neoplasm. Particulars: in vivo.
A short description of data set [17]: Biodistribution in colorectal tumor site of BALB/c mouse at 20 mg/kg, ip measured after 4 hrs by UHPLC-MS/MS analysis. It is filed as ADME, organism-based, Neoplasm. To be noted: in vivo.
Data set [18] is described as follows: Biodistribution in heart of BALB/c mouse at 20 mg/kg, ip measured after 4 hrs by UHPLC-MS/MS analysis. It is filed as ADME, organism-based. Particulars: in vivo.
Data set [19] can be described thus: Drug concentration in stomach of BALB/c mouse at 40 mg/kg, iv measured after 4 hrs by UHPLC-MS/MS analysis. Particulars: in vivo. It counts as ADME, organism-based.
Data set [20] in a line: Prodrug conversion in tumor of BALB/c mouse assessed as SN38 release at 40 mg/kg, iv measured after 4 hrs by UHPLC-MS/MS analysis. It counts as ADME, organism-based, Neoplasm. Particulars: in vivo.
A short description of data set [21]: Prodrug conversion in stomach of BALB/c mouse assessed as SN38 release at 20 mg/kg, ip measured after 4 hrs by UHPLC-MS/MS analysis. It is filed as ADME, organism-based. To be noted: in vivo.
The nature of data set [22]: Prodrug conversion in lung of BALB/c mouse assessed as SN38 release at 20 mg/kg, ip measured after 4 hrs by UHPLC-MS/MS analysis. It is filed as ADME, organism-based. To be noted: in vivo.
Data set [23] is described as follows: Drug concentration in intestine of BALB/c mouse at 40 mg/kg, iv measured after 4 hrs by UHPLC-MS/MS analysis. It counts as ADME, organism-based. To be noted: in vivo.
A short description of data set [24]: Prodrug conversion in liver of BALB/c mouse assessed as SN38 release at 40 mg/kg, iv measured after 4 hrs by UHPLC-MS/MS analysis. To be noted: in vivo. It counts as ADME, organism-based.
Data set [25] can be described thus: Drug concentration in heart of BALB/c mouse at 40 mg/kg, iv measured after 4 hrs by UHPLC-MS/MS analysis. It is filed as ADME, organism-based. Particulars: in vivo.
Data set [26] in a line: Drug concentration in liver of BALB/c mouse at 40 mg/kg, iv measured after 4 hrs by UHPLC-MS/MS analysis. It counts as ADME, organism-based. Particulars: in vivo.
Data set [27] can be described thus: Prodrug conversion in spleen of BALB/c mouse assessed as SN38 release at 20 mg/kg, ip measured after 4 hrs by UHPLC-MS/MS analysis. It is filed as ADME, organism-based. Particulars: in vivo.
Data set [28] is described as follows: Drug concentration in tumor of BALB/c mouse at 40 mg/kg, iv measured after 4 hrs by UHPLC-MS/MS analysis. To be noted: in vivo. It is filed as ADME, organism-based, Neoplasm.
Data set [29] in a line: Prodrug conversion in intestine of BALB/c mouse assessed as SN38 release at 20 mg/kg, ip measured after 4 hrs by UHPLC-MS/MS analysis. To be noted: in vivo. It counts as ADME, organism-based.
Data set [30] can be described thus: Biodistribution in gastrointestinal tract of BALB/c mouse at 20 mg/kg, ip measured after 4 hrs by UHPLC-MS/MS analysis. It is filed as ADME, organism-based. To be noted: in vivo.
A short description of data set [31]: Biodistribution in brain of BALB/c mouse at 20 mg/kg, ip measured after 4 hrs by UHPLC-MS/MS analysis. It is filed as ADME, organism-based. Particulars: in vivo.
Data set [32] can be described thus: Biodistribution in spleen of BALB/c mouse at 20 mg/kg, ip measured after 4 hrs by UHPLC-MS/MS analysis. It counts as ADME, organism-based. To be noted: in vivo.
A short description of data set [33]: Drug concentration in kidney of BALB/c mouse at 40 mg/kg, iv measured after 4 hrs by UHPLC-MS/MS analysis. To be noted: in vivo. It counts as ADME, organism-based.
Data set [34] is described as follows: Prodrug conversion in kidney of BALB/c mouse assessed as SN38 release at 20 mg/kg, ip measured after 4 hrs by UHPLC-MS/MS analysis. It counts as ADME, organism-based. Particulars: in vivo.
Data set [35] can be described thus: Prodrug conversion in liver of BALB/c mouse assessed as SN38 release at 20 mg/kg, ip measured after 4 hrs by UHPLC-MS/MS analysis. It is filed as ADME, organism-based. To be noted: in vivo.
Data set [36] can be described thus: Toxicity in AOM/DSS-induced orthotopic CRC BALB/c mouse model assessed as body weight loss at 20 mg/kg, ip administered every other day for 2 weeks. It counts as organism-based. To be noted: in vivo, 336 h.
Data set [37] is described as follows: Prodrug conversion in brain of BALB/c mouse assessed as SN38 release at 20 mg/kg, ip measured after 4 hrs by UHPLC-MS/MS analysis. To be noted: in vivo. It is filed as ADME, organism-based.
Data set [38] in a line: Biodistribution in liver of BALB/c mouse at 20 mg/kg, ip measured after 4 hrs by UHPLC-MS/MS analysis. It counts as ADME, organism-based. Particulars: in vivo.
Data set [39] can be described thus: Prodrug conversion in heart of BALB/c mouse assessed as SN38 release at 20 mg/kg, ip measured after 4 hrs by UHPLC-MS/MS analysis. It counts as ADME, organism-based. Particulars: in vivo.

Regarding `CCc1c2c(nc3ccc(OCc4ccc(NC(=O)[C@H](CCCNC(N)=O)NC(=O)[C@@H](NC(=O)CCCCN5C(=O)CC(SCCOCCOCCOc6cc(O)c(C(=O)CCc7ccc(O)cc7)c(O)c6)C5=O)C(C)C)cc4)cc13)-c1cc3c(c(=O)n1C2)COC(=O)[C@]3(O)CC` (some centres not stated), the Activity result was “Non-Toxic” in data set [1]; “Non-Toxic” in data set [2]; “Non-Toxic” in data set [3]; “Non-Toxic” in data set [4]; “Non-Toxic” in data set [7]; 75% in data set [8]. In addition, the Activity entry was “Dose-Dependent Effect” in the data set with Colorectal cancer cell, “Non-Toxic” in [11] and “Non-Toxic” in data set [13]. Moreover, the IC50 in the data set with COLO 205 was 4.59 µM; in the data set with HT-29 it was over 100 µM; with HCT-116, 7.43 µM. Moreover, the Stability entry in data set [5] was “Stable”. Further, the Drug metabolism entry is on record as “Metabolite_Notdetected” in data set [6] and “Not Active” in data set [10]. Besides, the Drug uptake entry in data set [9] is “Active”. In data set [12], the half-life is 36 h.

In the case of `CCc1c2c(nc3ccc(OC(=O)N4CCC(N5CCCCC5)CC4)cc13)-c1cc3c(c(=O)n1C2)COC(=O)[C@]3(O)CC` [IRINOTECAN], the Activity entry in [1] and in [36] was “Non-Toxic” in each case. In addition, the Ct result in data set [14], in [15], in data set [19], in data set [23], in data set [25] and in data set [26] was “Active” in each case. Moreover, the Ct result in [28] and in data set [33] was “Active” each time. For the same compound, the Drug metabolism result in data set [16], in [20], in [21], in [22], in data set [24] and in [27] was “Metabolite_Detected” each time. Also, the Drug metabolism result in data set [29], in data set [34], in data set [35], in data set [37] and in [39] was “Metabolite_Detected” in each case. Moreover, the Drug uptake result in data set [17], in data set [18], in [30], in data set [31], in data set [32] and in data set [38] was “Active” each time. For the same compound, the half-maximal inhibitory concentration (IC50) in the data set with COLO 205 turned out to be 9.9 µM; in the data set with HT-29, 8.51 µM; in the data set with HCT-116 it was 3.69 µM.
